From PMC3907362, “Synthetic cationic antimicrobial peptides bind with their hydrophobic parts to drug site II of human serum albumin” (BMC Structural Biology, 2014)
Several values for one entry are separate records, joined by “and”; a condition that tells them apart may be missing. Equal values may be shown once. Entries after “also recorded” stand apart in the source; their conditions may differ. Read-outs that look alike come from different tables or passages of the source. Residues, ends and D or L forms follow the SMILES beside them.

Tests used:
[1] = molecular target: T1, human serum albumin (HSA) (Homo sapiens, UniProt P02768); assay: Non-competitive isothermal titration calorimetry (ITC); settings: for Kd: pH 7.4
T1 sequence (P02768 25-609): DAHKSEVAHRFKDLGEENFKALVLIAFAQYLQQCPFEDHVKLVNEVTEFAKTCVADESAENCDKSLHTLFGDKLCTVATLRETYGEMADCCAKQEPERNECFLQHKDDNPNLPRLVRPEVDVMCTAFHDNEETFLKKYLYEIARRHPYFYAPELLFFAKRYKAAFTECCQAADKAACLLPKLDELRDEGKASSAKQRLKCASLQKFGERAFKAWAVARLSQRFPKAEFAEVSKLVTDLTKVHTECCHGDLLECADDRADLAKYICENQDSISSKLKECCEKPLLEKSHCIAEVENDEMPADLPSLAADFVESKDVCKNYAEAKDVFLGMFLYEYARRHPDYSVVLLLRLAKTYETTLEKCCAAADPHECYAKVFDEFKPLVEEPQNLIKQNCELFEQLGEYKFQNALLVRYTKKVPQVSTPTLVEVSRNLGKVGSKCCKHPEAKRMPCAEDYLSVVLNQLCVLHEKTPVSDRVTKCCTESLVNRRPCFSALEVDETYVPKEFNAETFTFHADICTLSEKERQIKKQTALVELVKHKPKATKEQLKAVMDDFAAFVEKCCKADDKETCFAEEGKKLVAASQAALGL
Description: The experiments were either performed on a CSC 5300 Nano-Isothermal Titration Calorimeter III (Calorimetry Sciences Corporation, Utah, USA) with a cell volume of 1 mL, or a MicroCal™ iTC200 with a cell volume of 200 μL (MicroCal, LLC., Northampton, MA, USA). In all experiments lyophilized HSA ~99% essential fatty acid and globulin free (Sigma A3782), was weighed out to a nominal concentration and dissolved prior to the experiments in buffer 50 mM Tris, 10 mM CaCl2, pH 7.4 at 25°C. All ligands and peptides were dissolved in the same buffer. Control titrations of ligand into buffer were performed in duplicate to investigate if the heat of dilution would generate a significant signal, and if ligand-ligand interactions were present in the competitive experiments. The same settings as for the corresponding ligand-HSA experiments were applied in the control experiments.
A stirring rate of 150 rpm and an isotherm temperature of 25°C were applied. The response signal was measured at 1 s intervals, and a 200 s baseline was collected prior to the first injection for the purpose of assessing the baseline. Non-competitive experiments were carried out either in duplicates or triplicates. […] In total 40 consecutive injections were performed with a volume of 5 μL and a spacing of 300 s. […] Prior to the first injection, a baseline of 100 s was recorded to ensure instrument stability. The solution was stirred at 150 rpm, and the isothermal temperature set to 25°C. All competitive experiments were carried out in duplicate. […] The first injection was set to a dummy volume of 0.1 μL due to syringe leakage in the baseline equilibration step. An initial delay of 180 s was set to sample the baseline. The applied reference power was 6 μcal/s and an isothermal temperature of 25°C was used. […] For the selected peptides CAP 3 and CAP 5 competitive experiments with reversed order of the reference ligands and the CAP were performed as a control of titration order. The same ITC settings were applied for the non-competitive and competitive experiments with the MicroCal™ iTC200.
The ITC data was analyzed using the NanoAnalyse software from TA Instruments, v2.0.1 (Waters LLC, New Castle, DE, US) or Origin® 7.0. Independent model fit was used to generate the binding isotherm, and the first injection in all titration experiments was omitted in the binding isotherm analysis. The heat of dilution and unspecific binding signal corresponding to the last injection in each experiment was subtracted from all of the heat signals. The quality of the model fit was examined using the statistical modules of the software, the 95% confidence interval based on a 1000 trial calculations in the NanoAnalyze package, and the default non-weighted least square calculation in Origin® 7.0.

[2] = test system: Methicillin resistant Staphylococcus aureus ATCC 33591; type: cell-based
Description: (§1) The antibacterial activity of CAP 1 and CAP 5 were tested towards Staphylococcus aureus strain ATCC 25923, methicillin resistant Staphylococcus aureus strain ATCC 33591 and Escherichia coli strain ATCC 25922. The studies were performed by Toslab AS employing standard methods.

[3] = test system: Escherichia coli ATCC 25922; type: cell-based
Description: as §1

[4] = test system: Staphylococcus aureus strain ATCC 25923; type: cell-based
Description: as §1

[5] = molecular target: HSA (Homo sapiens, UniProt P02768); assay: NMR WaterLOGSY; type: binding; settings: HSA:ligand 1:20
Sequence of HSA (P02768 25-609): as above
Description: All NMR experiments were acquired on an Agilent (Varian) inova spectrometer operating at 599.934 MHz for ^1H, equipped with a 2nd generation inverse triple resonance HCN cold probe. […] The difference spectra were produced by internal subtraction and all spectra were acquired with both sculpted solvent suppression during the PFG spin echo and 500 ms solvent presaturation during the relaxation delay. The protein signals were suppressed by a 10 ms T1ρ-spinlock. Finally, the spectra were multiplied with a 3 Hz exponential window function. For reference, double PFG spin echo 1D proton spectra were acquired using the same parameters, including the 10 ms T1ρ-spinlock for protein suppression. […] All samples were monitored for line broadening, quickened relaxation and NOE inversion to spot any direct interaction between ligands before the addition of HSA.

[6] = test system: selected bacteria; assay: MIC towards selected bacteria, summary over strains; type: cell-based; settings: all bacterial strains tested
Description: as §1

[7] = molecular target: T1, human serum albumin (HSA); design: purchased Sigma A3782; settings: HSA drug site II; ref [34],[35]; read-out: binding affinity (Kd), reported in other studies; cited from earlier work
[8] = Kd, CSC 5300 Nano-Isothermal Titration Calorimeter III, 25°C
[9] = Kd, MicroCal iTC200 (values in parenthesis), 25°C
[10] = CSC 5300 Nano-Isothermal Titration Calorimeter III
[11] = MicroCal iTC200 (values in parenthesis)

Compound	MIC MRSA [2]	MIC E. coli [3]	MIC S. aureus [4]	WaterLOGSY binding to HSA [5]	Kd [1, 8]	Kd [1, 9]	other results
C[C@H](NC(=O)[C@@H](N)CCCNC(=N)N)C(=O)N[C@@H](CCCNC(=N)N)C(N)=O [CAP 1] (H-Arg-Ala-Arg-NH2)	>499 µM	>499 µM	>499 µM	does not interact directly with HSA and does not and not			Binding to HSA by ITC, in words ([1]; non-competitive ITC): did not bind to HSA; also recorded: does not bind to HSA; Kd [1]: -; Antimicrobial activity (MIC relative to threshold) [6]: inactive
N=C(N)NCCC[C@H](NC(=O)[C@H](Cc1c[nH]c2ccccc12)NC(=O)[C@@H](N)CCCNC(=N)N)C(=O)NCc1ccccc1 [CAP 2] (HELM PEPTIDE1{R.W.R.[c1ccc(CN[*:1])cc1]}$$$$V2.0)					23 ± 8 µM		
N=C(N)NCCC[C@H](NC(=O)[C@H](Cc1ccc(-c2ccccc2)cc1)NC(=O)[C@@H](N)CCCNC(=N)N)C(=O)NCc1ccccc1 [CAP 3] (HELM PEPTIDE1{R.[O=C([C@H](Cc1ccc(-c2ccccc2)cc1)N[*:1])[*:2]].R.[c1ccc(CN[*:1])cc1]}$$$$V2.0)					22 ± 9 µM	99 µM	
CC(C)(C)c1cc(C(C)(C)C)c2[nH]c(C(C)(C)C)c(C[C@H](NC(=O)[C@@H](N)CCCNC(=N)N)C(=O)N[C@@H](CCCNC(=N)N)C(=O)NCc3ccccc3)c2c1 [CAP 4]					25 ± 9 µM		
C[C@H](N)C(=O)N[C@@H](Cc1ccc(-c2ccccc2)cc1)C(=O)N[C@@H](C)C(N)=O [CAP 5]	>523 µM	>523 µM	>523 µM			100 µM	
CN(C)c1cccc2c(S(=O)(=O)NCC(=O)O)cccc12 [Dgly, dansylglycine]				clear WaterLOGSY effect	11 ± 4 µM	40 µM	TΔS [1, 10]: 2.3 ± 0.5 kcal/mol; n (stoichiometric ratio) [1, 10]: 1.08 ± 0.05; ΔH [1, 10]: -4.5 ± 0.3 kcal/mol; TΔS [1, 11]: 0.5 ± 0.1 kcal/mol; n (stoichiometric ratio) [1, 11]: 1.16 ± 0.01; ΔG [1, 11]: -6.0 kcal/mol and -6.00 ± 0.02 kcal/mol; ΔH [1, 11]: -5.5 ± 0.1 kcal/mol; Kd [7]: 1.7 to 3.2 µM
